Results as given in patent US8221729B2, “Use of aminophenylbenzotriazole derivatives for protecting human and animal skin and hair from the harmful effects of UV radiation and cosmetic compositions thereof” (BASF SE, priority 2006, dated 2012).

Experiment: UV-spectrum in ethanol
Assay type: physicochemical
Conditions: for UV-spectrum: ε: at λmax, in M-1cm-1 (unit assumed)

Row | SMILES | UV-spectrum: λmax | UV-spectrum: ε
1 | CCN(CC)c1ccc(-n2nc3ccccc3n2)c(O)c1 [Example A-1] | 385 nm | 29591
2 | CCCCCC(=O)Nc1ccc(-n2nc3ccccc3n2)c(O)c1 [Example A-2] | 346 nm | 29933
